From US4704384A, “Aziridinyl quinone antitumor agents” (priority 1981, dated 1987)
Values joined by “and” are separate entries in the source; they are usually repeats but may differ in a detail not shown here. Equal entries are not always repeated. “Also recorded” adds a separate entry of the source. Where two headings read alike, the source gives them in different places.

Assays:
lymphoid leukemia L1210 [1] = conditions: for OD / ILS / animals alive per 6 / T-C: Table VIII
Text: ^b Ip tumor implantation, ip QD19 treatment schedule.
^e ILS = [(treated survival + control survival) × 100%] - 100%
The L1210, P388 and B16 test systems described in Table II utilize intraperitoneal (IP) tumor implantation and IP drug treatment while the Lewis lung system employs subcutaneous tumor implantation and IP treatment. All three CNS tumor models (Table III) use intracerebral (IC) tumor implantation and IP treatment.
Aqueous saline solution (0.9%) was used as the drug vehicle. Normally, five doses were employed per experiment with the top dose chosen to produce toxicity. The lower doses were 50% of each preceeding dose.
Consistent with NCI antitumor test protocols, intraperitoneal (IP) administration of the drug was employed with all five tumor systems investigated. Tumor implantation was IP in the systems designated IP leukemia L1210 and P388 as well as B16 melanoma. Intracerebral (IC) tumor implantation was utilized in the IC L1210 and ependymoblastoma tumor systems.

[2] = tested on: lymphocytic leukemia P388; format: in vivo, murine; conditions: for OD: QD1-9, Table IX; for ILS: QD1-9, at OD
B16 melanocarcinoma = format: in vivo, murine; conditions: for ILS: QD1-9, at OD, Table IX; for OD: QD1-9, Table IX
lymphoid leukemia L1210 [3] = format: in vivo, murine
Text: (§1) A third IC tumor model, the ependymoblastoma system, was also studied. This system requires intracerebral implantation of a solid tumor fragment while the IC L1210 and IC P388 systems utilize IC inoculated ascites tumor fluid. All three use IP drug treatment however. […] Cures (survivors from the group of six mice on the last day of the experiment) are indicated.

ependymoblastoma = format: in vivo, murine; conditions: for OD: QD1-5, Table X; for ILS: QD1-5, at OD; for ILS / animals alive per 6: Table X; for animals alive per 6: QD1-5, day 60, at OD; for survivors, EM: Table XI, parentheses, per 6
Text: ^c Ic tumor implantation, ip QD15 treatment schedule.
as §1

| Structure (SMILES) | activity in IP L1210 (lymphoid leukemia L1210 [1]) | OD [2] | ILS ([2]; Table IX) | ILS (B16 melanocarcinoma) | OD (ependymoblastoma) | ILS (ependymoblastoma) | OD (lymphoid leukemia L1210 [1]; Day 1 only (1 injection)) | OD (lymphoid leukemia L1210 [1]; Q4D (day 1,5,9)) | ILS (lymphoid leukemia L1210 [1]; Q4D, at OD) | OD (lymphoid leukemia L1210 [1]; QD1-9 (9 injections)) | ILS (lymphoid leukemia L1210 [1]; QD1-9, at OD) | OD (B16 melanocarcinoma) | ILS (lymphoid leukemia L1210 [1]; Day 1 only, at OD) | other results |
| --- | --- | --- | --- | --- | --- | --- | --- | --- | --- | --- | --- | --- | --- | --- |
| CCCSC1=C(N2CC2)C(=O)C(SCCC)=C(N2CC2)C1=O [Compound 6] | inactive |  |  |  |  |  |  |  |  |  |  |  |  |  |
| CNC1=C(N2CC2)C(=O)C(NC)=C(N2CC2)C1=O [Compound 34] |  | 0.2 mg/kg/injection and 0.1 mg/kg/injection | 95% and 69% | 39% and 29% | 0.2 mg/kg/injection and 0.4 mg/kg/injection | 219% and 218% | 0.7 mg/kg/injection | 0.8 mg/kg/injection and 0.4 mg/kg/injection | 57% and 56% | 0.2 mg/kg/injection | 73% and 61% |  |  | activity in B16 melanoma (B16 melanocarcinoma): approached minimal reproducible activity; activity in IC L1210 (lymphoid leukemia L1210 [3]): most active; also recorded: significant activity; OD (lymphoid leukemia L1210 [3]; QD1-9, Table X): 0.4 mg/kg/injection and 0.2 mg/kg/injection; ILS (lymphoid leukemia L1210 [3]; QD1-9, at OD, Table X): 68% and 60%; activity in ependymoblastoma (ependymoblastoma): among the most active materials; animals alive per 6 (ependymoblastoma): 5 and 4; survivors, EM (ependymoblastoma): 5; animals alive per 6 (lymphoid leukemia L1210 [1]; QD1-9, day 30, at OD): 1 |
| CN(C)C1=C(N2CC2)C(=O)C(N(C)C)=C(N2CC2)C1=O [Compound 41, 2,5-DIAZIRIDINYL-3,6-BIS(DIMETHYLAMINO)-1,4-BENZOQUINONE] |  | 1.0 mg/kg/injection and 0.5 mg/kg/injection | 74% and 37% | 16% and 12% | 1.0 mg/kg/injection and 0.5 mg/kg/injection | 215% and 190% | 1.5 mg/kg/injection | 3.0 mg/kg/injection | 120% and 73% |  |  | 0.2 mg/kg/injection | 21% and 15% | activity in IC L1210 (lymphoid leukemia L1210 [3]): most active; also recorded: significant activity; OD (lymphoid leukemia L1210 [3]; Q4D(1,5,9), Table X): 3.0 mg/kg/injection; ILS (lymphoid leukemia L1210 [3]; Q4D(1,5,9), at OD, Table X): 72% and 56%; activity in ependymoblastoma (ependymoblastoma): among the most active materials; animals alive per 6 (ependymoblastoma): 5 and 4; survivors, EM (ependymoblastoma): 5; animals alive per 6 (lymphoid leukemia L1210 [1]; Q4D, day 30, at OD): 1; survivors, IP L1210 (lymphoid leukemia L1210 [1]; Table XI, parentheses, per 6): 1 |
| O=C1C(N2CCCCC2)=C(N2CC2)C(=O)C(N2CCCCC2)=C1N1CC1 [Compound 44] |  | 5.0 mg/kg/injection and 10.0 mg/kg/injection | 46% and 77% |  |  | 68% and 46% |  |  | 26% and 22% | 10.0 mg/kg/injection | 28% | 5.0 mg/kg/injection and 2.5 mg/kg/injection | 16% and 8% | T-C (lymphoid leukemia L1210 [1]; QD1-9, day 5, at OD): -2.2 grams |
| O=C1C(N2CCCC2)=C(N2CC2)C(=O)C(N2CCCC2)=C1N1CC1 [Compound 43, 2,5-DIAZIRIDINYL-3,6-DIPYRROLIDINO-1,4-BENZOQUINONE] |  |  | 72% and 55% | 28% and 18% | 1.6 mg/kg/injection and 3.1 mg/kg/injection |  | 4.0 mg/kg/injection and 2.0 mg/kg/injection | 6.2 mg/kg/injection | 43% | 2.0 mg/kg/injection | 24% and 21% | 2.0 mg/kg/injection | 8% | T-C (lymphoid leukemia L1210 [1]; Q4D, day 5, at OD): -2.3 grams |
| CCOC(=O)NC1=C(N2CC2(C)C)C(=O)C(NC(=O)OCC)=C(N2CC2(C)C)C1=O [Compound 11] | abolished activity |  |  |  |  |  |  |  |  |  |  |  |  |  |
| CCOC(=O)NC1=C(NCCCl)C(=O)C(NC(=O)OCC)=C(NCCCl)C1=O [Compound 12] | activity was abolished |  |  |  |  |  |  |  |  |  |  |  |  |  |
| O=C1C(F)=C(N2CC2)C(=O)C(N2CCOCC2)=C1N1CC1 [Compound 31, 2,5-DIAZIRIDINYL-3-FLUORO-5-MORPHOLINO-1,4-BENZOQUINONE] |  | 3.0 mg/kg/injection and 6.0 mg/kg/injection | 57% and 54% | 18% and 9% | 0.8 mg/kg/injection and 1.5 mg/kg/injection | 49% and 40% |  | 6.2 mg/kg/injection and 3.1 mg/kg/injection |  |  |  | 0.7 mg/kg/injection |  | activity in IP P388 [2]: active against leukemia P388 |
| CCOC(=O)NC1=C(N2CC2C)C(=O)C(NC(=O)OCC)=C(N2CC2C)C1=O (stereo not shown) [Compound 10] | abolished activity |  |  |  |  |  |  |  |  |  |  |  |  |  |
| CCCCNC1=C(N2CC2)C(=O)C(NCCCC)=C(N2CC2)C1=O [Compound 37] | significant reduction in activity | 5.0 mg/kg/injection and 10.0 mg/kg/injection | 64% and 49% |  | 6.0 mg/kg/injection and 3.0 mg/kg/injection | 93% | 10.0 mg/kg/injection | 12.5 mg/kg/injection and 8.2 mg/kg/injection | 44% and 25% | 10.0 mg/kg/injection and 5.0 mg/kg/injection | 36% and 30% | 10.0 mg/kg/injection and 5.0 mg/kg/injection | 11% and 5% |  |
| CCCNC1=C(N2CC2)C(=O)C(NCCC)=C(N2CC2)C1=O [Compound 36] | significant reduction in activity | 6.0 mg/kg/injection | 151% and 108% | 36% and 32% | 5.0 mg/kg/injection and 10.0 mg/kg/injection | 259% and 143% |  | 6.2 mg/kg/injection | 28% and 25% | 6.2 mg/kg/injection | 48% and 43% | 5.0 mg/kg/injection | 17% | animals alive per 6 ([2]; QD1-9, day 30, at OD, Table IX): 2; survivors, P388 ([2]; Table XI, parentheses, per 6): 2; activity in ependymoblastoma (ependymoblastoma): highly active; also recorded: very active; also recorded: most active; animals alive per 6 (ependymoblastoma): 2 and 1; survivors, EM (ependymoblastoma): 2 |
| O=C1C(N2CCOCC2)=C(N2CC2)C(=O)C(N2CCOCC2)=C1N1CC1 [Compound 46, 2,5-DIAZIRIDINYL-3,6-DIMORPHOLINO-1,4-BENZOQUINONE] |  | 0.5 mg/kg/injection and 0.7 mg/kg/injection | 52% and 48% | 24% and 17% |  | 134% and 82% |  | 6.0 mg/kg/injection | 49% and 44% |  | 64% and 32% |  | -14% | T-C (lymphoid leukemia L1210 [1]; Q4D, day 5, at OD): -2.6 grams |
| CNC1=C(N2CC2C)C(=O)C(NC)=C(N2CC2C)C1=O (stereo not shown) [Compound 26] |  |  |  | 70% and 48% | 10.0 mg/kg/injection and 5.0 mg/kg/injection |  | 5.0 mg/kg/injection and 10.0 mg/kg/injection | 12.5 mg/kg/injection | 93% and 52% | 5.0 mg/kg/injection | 69% and 37% | 5.0 mg/kg/injection | 42% and 39% | activity in B16 melanoma (B16 melanocarcinoma): reproducibly active; OD (lymphoid leukemia L1210 [3]; QD1-9, Table X): 5.0 mg/kg/injection and 10.0 mg/kg/injection; ILS (lymphoid leukemia L1210 [3]; QD1-9, at OD, Table X): 39% and 25%; activity in ependymoblastoma (ependymoblastoma): highly active; animals alive per 6 (ependymoblastoma): 1; survivors, EM (ependymoblastoma): 1 |
| CCSC1=C(N2CC2)C(=O)C(SCC)=C(N2CC2)C1=O [Compound 5] | not reproducible |  |  |  |  |  |  |  |  |  |  |  |  | % ILS (lymphoid leukemia L1210 [1]; Q4D schedule): 30% |
| CC(=O)NC1=C(N2CC2(C)C)C(=O)C(NC(C)=O)=C(N2CC2(C)C)C1=O [Compound 21] | abolished activity |  |  |  |  |  |  |  |  |  |  |  |  |  |
